Assay results reported in the RepoRT retention time repository.

Assay: HILIC, Waters ACQUITY UPLC BEH Amide, 100 × 2.1 mm, 1.7 µm; A: water + 0.125% formic acid + 10 mM ammonium formate; B: 5% water + 95% acetonitrile + 0.125% formic acid + 10 mM ammonium formate; gradient (min/%B) 0/100 2/100 7.7/70 9.5/40 10.25/30 12.75/100 17/100
Conditions: stereoisomer not certain

| SMILES | LC retention time [min] |
| --- | --- |
| CC(C)NCC(O)COc1ccc(COCCOC(C)C)cc1 (stereo not drawn) [Bisoprolol] | 3.47 |
| O=c1cc[nH]c2ccccc12 [4-Hydroxyquinoline] | 1.69 |
| NC(=O)CCC(NC(=O)C(N)CCC(=O)O)C(=O)O (stereo not drawn) [Glu-Gln] | 9.6 |
| C#CCN(C)C(C)Cc1ccccc1 (stereo not drawn) [Selegiline] | 1.5 |
| CN1CCN(c2nc3cc(C(F)(F)F)ccc3n3cccc23)CC1 | 2.21 |
| O=c1ccn(C2OC(CO)CC2O)c(=O)[nH]1 (stereo not drawn) [3-Deoxyuridine] | 2.87 |
| CN(CC=CC#CC(C)(C)C)Cc1cccc2ccccc12 [Terbinafine] | 1.33 |
| C=C(C)C1CC=C(C)CC1 (stereo not drawn) [Limonene] | 0.92 |
| COc1cc2c(cc1OC)C1C(C)c3ccc(OC)c(OC)c3CN1CC2 (stereo not drawn) [Corydaline] | 1.52 |
| COc1cc(C=Cc2ccc(O)cc2)cc(OC)c1 [Pterostilbene] | 0.98 |
| NCCS [2-Aminoethanethiol] | 2.05 |
| CN1C(=O)CN=C(c2ccccc2)c2cc(Cl)ccc21 [Diazepam] | 1.1 |
| O=C(O)CNC(=O)c1ccc(O)cc1 [4-Hydroxyhippuric acid] | 5.86 |
| NCCS(=O)(=O)O [Taurine] | 7.85 |
| CCC(=O)C(CC(C)N(C)C)(c1ccccc1)c1ccccc1 (stereo not drawn) [Methadone] | 2 |
| O=C(O)CNC(=O)c1cccnc1 [Nicotinoylglycine] | 7.08 |
| NC(=O)NCCCC[C@H](N)C(=O)O [L-Homocitrulline] | 8.73 |
| COc1cc(N)c(Cl)cc1C(=O)NC1CCN(CCCOc2ccc(F)cc2)CC1OC (stereo not drawn) [Cisapride] | 2.28 |
| Clc1ccc2c(c1)CCc1cccnc1C2=C1CCNCC1 [Desloratadine] | 4.9 |
| CN1CCN(C2=Nc3cc(F)ccc3Cc3ccccc32)CC1 [Fluperlapine] | 2.3 |

| SMILES | LC retention time [min] |
| --- | --- |
| CNC(Cc1ccc(O)cc1)C(=O)O (stereo not drawn) [N-Methyltyrosine] | 6.79 |
| NC1CCN(c2nc3c(cc2F)c(=O)c(C(=O)O)cn3-c2ccc(F)cc2F)C1 (stereo not drawn) [Tosufloxacin] | 4.87 |
| CC12CCC(=O)C=C1CCC1C2CCC2(C)C(O)CCC12 (stereo not drawn) [Testosterone] | 1.05 |
| NC(Cn1cccn1)C(=O)O (stereo not drawn) [3-(1-Pyrazolyl)-alanine] | 7.54 |
| COC1C(O)CC(=O)OC(C)CC=CC=CC(O)C(C)CC(CC=O)C1OC1OC(C)C(OC2CC(C)(O)C(OC(=O)CC(C)C)C(C)O2)C(N(C)C)C1O (stereo not drawn) [Kitasamycin] | 2.04 |
| CC(C)CC(NC(=O)CCC(N)C(=O)O)C(=O)O (stereo not drawn) [gamma-Glutamylleucine] | 8.1 |
| CS(=O)CCCCC(=NOS(=O)(=O)O)SC1OC(CO)C(O)C(O)C1O (stereo not drawn) [Glucoraphanin] | 7.37 |
| CC(C)CC(NC(=O)C(COC(C)(C)C)NC(=O)C(Cc1ccc(O)cc1)NC(=O)C(CO)NC(=O)C(Cc1c[nH]c2ccccc12)NC(=O)C(Cc1cnc[nH]1)NC(=O)C1CCC(=O)N1)C(=O)NC(CCCN=C(N)N)C(=O)N1CCCC1C(=O)NNC(N)=O (stereo not drawn) [Goserelin] | 7.83 |
| NCC(=O)NCC(=O)NCC(=O)O [Gly-Gly-Gly] | 9.18 |
| CCC(=O)OC(CC(=O)[O-])C[N+](C)(C)C (stereo not drawn) [Propionylcarnitine] | 6.41 |
| NCC(O)c1ccccc1 (stereo not drawn) [Phenylethanolamine] | 5.51 |
| CSCCC(=O)C(=O)O [alpha-Keto-gamma-(methylthio)butyric acid] | 0.92 |
| O=c1cc(-c2ccccc2)oc2ccc(O)cc12 [6-Hydroxyflavone] | 1.26 |
| Cc1ncc2n1-c1ccc(Cl)cc1C(c1ccccc1F)=NC2 [Midazolam] | 1.29 |
| COC(=O)CC(O)(CCCC(C)(C)O)C(=O)OC1C(OC)=CC23CCCN2CCc2cc4c(cc2C13)OCO4 (stereo not drawn) [Homoharringtonine] | 3.24 |
| NC(Cc1c[nH]c2ccc(O)cc12)C(=O)O (stereo not drawn) [5-Hydroxytryptophan] | 7.48 |
| COc1cc2nc(N(C)CCCNC(=O)C3CCCO3)nc(N)c2cc1OC (stereo not drawn) [Alfuzosin] | 4.29 |
| CC(O)C(C)C(=O)O (stereo not drawn) [Methyl-3-hydroxybutyric acid] | 6.22 |
| CC(C=CC1(O)C(C)=CC(=O)CC1(C)C)=CC(=O)O (stereo not drawn) [Abscisic acid] | 1.33 |
| CCN1CCCC1CNC(=O)c1cc(S(N)(=O)=O)ccc1OC (stereo not drawn) [Levosulpiride] | 4.37 |

| SMILES | LC retention time [min] |
| --- | --- |
| CNCCC(Oc1cccc2ccccc12)c1cccs1 (stereo not drawn) [Duloxetine] | 2.6 |
| CC=C1N(C)C(C)CC1(c1ccccc1)c1ccccc1 (stereo not drawn) [EDDP] | 1.9 |
| C#CC1(O)CCC2C3CCC4=CC(=O)CCC4C3CCC21CC (stereo not drawn) [Levonorgestrel] | 0.99 |
| COc1cc(OC)c(C(=O)CCCN2CCCC2)c(OC)c1 [Buflomedil] | 2.34 |
| Nc1ccc2cn[nH]c2c1 [6-Aminoindazole] | 1.26 |
| O=c1cc(-c2ccc(O)cc2)oc2c(C3OC(CO)C(O)C(O)C3O)c(O)cc(O)c12 (stereo not drawn) [Vitexin] | 5.33 |
| O=C(O)c1cc(O)ccc1O [Gentisinic acid] | 3.18 |
| COC1C(O)C(CO)OC1n1cnc2c(=O)[nH]c(N)nc21 (stereo not drawn) [2'-O-Methylguanosine] | 5.72 |
| COc1ccc2[nH]cc(C3=CCNCC3)c2c1 | 4.61 |
| NCCCCC(=O)O [5-Aminovaleric acid] | 7.24 |
| C#CC1(O)CCC2C3CCc4cc(O)ccc4C3CCC21C (stereo not drawn) [Ethynylestradiol] | 0.99 |
| CC(=O)NC(CCCN)C(=O)O [N-alpha-Acetyl-L-ornithine] | 8.31 |
| OCCc1c[nH]c2ccc(O)cc12 [5-Hydroxytryptophol] | 5.93 |
| CC(=O)OC(CC(=O)[O-])C[N+](C)(C)C (stereo not drawn) [Acetylcarnitine] | 7.19 |
| COC1=C(OC)C(=O)C(CCCCCCCCCCO)=C(C)C1=O [Idebenone] | 0.96 |
| CCC=CCC1C(=O)CCC1CC(=O)OC (stereo not drawn) [Methyl jasmonate] | 1.04 |
| O=C1CN=C(c2ccccc2)c2cc([N+](=O)[O-])ccc2N1 [Nitrazepam] | 1.2 |
| COc1cc(-c2oc3cc(O)cc(O)c3c(=O)c2OC2OC(CO)C(O)C(O)C2O)ccc1O (stereo not drawn) [Isorhamnetin-3-glucoside] | 4.49 |
